Measurements reported in PubChem BioAssay (NCI).
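Test compounds were applied to cells in 96-well plates for 48 hours at 5 doses. The concentration for full growth arrest is given as TGI.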

What was measured:
Assay in all cases: inhibition of tumour cell growth, NCI panel, 48 h
[1] = system: M19-MEL melanoma
[2] = system: HCC-2998 colon
[3] = system: NCI-H460 lung
[4] = system: SF-295 CNS
[5] = system: U251 CNS
[6] = system: 786-0 renal
[7] = system: MOLT-4 leukemia
[8] = system: MALME-3M melanoma
[9] = system: SK-MEL-2 melanoma
[10] = system: SK-MEL-5 melanoma
[11] = system: DLD-1 colon
[12] = system: KM20L2 colon
[13] = system: RXF 393 renal
[14] = system: NCI-H226 lung
[15] = system: A549 NSCLC
[16] = system: HL-60(TB) leukemia
[17] = system: SF-268 CNS
[18] = system: RXF-631 renal
[19] = system: M14 melanoma
[20] = system: HCT-116 colon
[21] = system: EKVX NSCLC
[22] = system: KM12 colon
[23] = system: K-562 leukemia
[24] = system: HCT-15 colon
[25] = system: SK-MEL-28 melanoma
[26] = system: UACC-62 melanoma
[27] = system: SF-539 CNS
[28] = system: CCRF-CEM leukemia
[29] = system: HT29 colon
[30] = system: HOP-18 NSCLC
[31] = system: UACC-257 melanoma
[32] = system: TK-10 renal
[33] = system: SNB-75 CNS
[34] = system: SW-620 colon
[35] = system: HOP-62 NSCLC
[36] = system: RPMI-8226 leukemia
[37] = system: OVCAR-8 ovarian
[38] = system: SNB-19 CNS
[39] = system: LXFL 529 NSCLC
[40] = system: NCI-H522 lung
[41] = system: SK-OV-3 ovarian
[42] = system: OVCAR-5 ovarian
[43] = system: NCI-H23 lung
[44] = system: CAKI-1 renal
[45] = system: DMS 273 small cell lung
[46] = system: OVCAR-4 ovarian
[47] = system: SN12C renal
[48] = system: SR leukemia
[49] = system: HOP-92 NSCLC
[50] = system: LOX IMVI melanoma
[51] = system: ACHN renal
[52] = system: SNB-78 CNS
[53] = system: A498 renal
[54] = system: XF 498 CNS
[55] = system: DMS 114 small cell lung
[56] = system: UO-31 renal
[57] = system: IGROV1 ovarian

Measured: TGI

O=c1nc(N2CCCC2)nc(N2CCCC2)s1
> 100 µM: all assays above
